US20240158392A1 (Janssen Biotech, Inc., priority 2021, published 2024)

Molecular target: SIK2 (Homo sapiens, UniProt Q9H0K1)
Test: SIK2 Enzymatic Assay High Version 2 (High ATP)
Assay type: biochemical
Conditions: not given
Experimental: All steps were performed at room temperature. Compounds were pre-plated onto an assay plate using an Echo acoustic dispenser (Labcyte, E550 or E555) at 80 nL per well. Enzyme prepared in assay buffer at 6 nM (2× final concentration) was added at 4 μL per well using the Multidrop Combi (Thermo Fisher—used for all additions in this assay) to the assay plate, spun for 1 min at 1000 rpm (Allegra 6KR Beckman Coulter centrifuge), and incubated with compound for 30 minutes. Assay buffer containing 6 mM ATP and 400 μM HDAC5tide (2× of final concentration for each substrate) was added at 4 μL per well to the assay plate and then spun as above and incubated for 2 hours. […] ADP-Glo Max Reagent (prepared and aliquoted as per manufacturer instructions) was then added at 8 μL per well, spun and incubated for 2 hours. ADP-Glo Max Detection (prepared and aliquoted as per manufacturer instructions) was added at 8 μL per well to the assay plate, which was spun and incubated for 1 hour. The plate is then read on the Pherastar (BMG Labtech) using a luminescence read. Gain is set between 2200-2500.

Sequence of SIK2 (Q9H0K1 whole entry, species assumed): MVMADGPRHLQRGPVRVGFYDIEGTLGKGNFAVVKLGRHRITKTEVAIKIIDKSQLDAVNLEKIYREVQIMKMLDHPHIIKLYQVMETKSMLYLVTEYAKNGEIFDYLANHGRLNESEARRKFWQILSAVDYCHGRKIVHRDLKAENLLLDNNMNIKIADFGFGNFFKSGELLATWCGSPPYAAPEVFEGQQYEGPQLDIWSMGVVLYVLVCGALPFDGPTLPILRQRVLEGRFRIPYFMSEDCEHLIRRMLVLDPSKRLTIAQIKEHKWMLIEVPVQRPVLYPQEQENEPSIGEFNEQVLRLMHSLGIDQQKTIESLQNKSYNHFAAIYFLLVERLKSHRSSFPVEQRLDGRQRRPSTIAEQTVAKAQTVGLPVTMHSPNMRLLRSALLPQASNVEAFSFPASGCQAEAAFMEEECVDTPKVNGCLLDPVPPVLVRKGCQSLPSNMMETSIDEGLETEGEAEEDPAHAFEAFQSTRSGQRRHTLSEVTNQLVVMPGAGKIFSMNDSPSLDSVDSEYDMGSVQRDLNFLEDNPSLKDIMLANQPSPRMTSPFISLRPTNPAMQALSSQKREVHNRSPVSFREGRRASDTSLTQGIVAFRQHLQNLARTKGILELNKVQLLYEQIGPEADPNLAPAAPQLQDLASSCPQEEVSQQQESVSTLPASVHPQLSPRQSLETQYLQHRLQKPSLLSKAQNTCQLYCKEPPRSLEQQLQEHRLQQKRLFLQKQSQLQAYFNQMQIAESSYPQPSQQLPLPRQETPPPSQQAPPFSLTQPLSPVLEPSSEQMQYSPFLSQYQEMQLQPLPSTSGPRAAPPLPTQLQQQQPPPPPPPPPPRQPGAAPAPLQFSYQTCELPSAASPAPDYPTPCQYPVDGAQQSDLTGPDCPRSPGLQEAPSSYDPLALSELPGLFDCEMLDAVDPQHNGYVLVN

Row | Structure (SMILES) | IC50
1 | Cc1cc(-c2ccn3nc(Nc4ccn(C)n4)cc3c2)c(O[C@H]2C[C@H]3COC[C@@H](C2)N3C)cn1 [Example 423, 5-[2-methyl-5-[[(1S,5R,7s)-9-methyl-3-oxa-9-azabicyclo[3.3.1]nonan-7-yl]oxy]-4-pyridyl]-N-(1-methylpyrazol-3-yl)pyrazolo[1,5-a]pyridin-2-amine] | 0.0103 µM
2 | Cc1cc(-c2ccn3nc(Nc4ccc(C(=O)NCC(C)(C)O)cn4)cc3c2)c(O[C@H]2C[C@H]3COC[C@@H](C2)N3)cn1 [Example 371, N-(2-hydroxy-2-methyl-propyl)-6-[[5-[2-methyl-5-[[(1S,5R,7s)-3-oxa-9-azabicyclo[3.3.1]nonan-7-yl]oxy]-4-pyridyl]pyrazolo[1,5-a]pyridin-2-yl]amino]pyridine-3-carboxamide] | < 0.000847 µM
3 | Cc1cc(-c2ccn3nc(NC(=O)C4CC4)c(C)c3c2)c(O[C@H]2C[C@H]3COC[C@@H](C2)N3)cn1 [Example 400, N-[3-methyl-5-[2-methyl-5-[[(1S,5R,7s)-3-oxa-9-azabicyclo[3.3.1]nonan-7-yl]oxy]-4-pyridyl]pyrazolo[1,5-a]pyridin-2-yl]cyclopropanecarboxamide] | 0.000912 µM

Same assay, conditions: enzyme 6 nM, 6 mM ATP and 400 μM HDAC5tide (each 2× final concentration); 30 minutes pre-incubation, 2 hours; ADP-Glo Max luminescence; read-out: SIK2 high ATP IC50 (μM) (Test Example 2)

Row | Structure (SMILES) | IC50
4 | Cc1cc(-c2ccn3nc(Nc4cc(C)nc(C)n4)cc3c2)c(OC2CC(NS(C)(=O)=O)C2)cn1 (stereo not drawn) [Example 579, N-[3-[[4-[2-[(2,6-dimethylpyrimidin-4-yl)amino]pyrazolo[1,5-a]pyridin-5-yl]-6-methyl-3-pyridyl]oxy]cyclobutyl]methanesulfonamide] | 0.0666 µM
5 | CC(C)(C#N)COc1cnc(OC(F)F)cc1-c1ccn2nc(Nc3cccnc3)cc2c1 [Example 694, 3-[[6-(difluoromethoxy)-4-[2-(3-pyridylamino)pyrazolo[1,5-a]pyridin-5-yl]-3-pyridyl]oxy]-2,2-dimethyl-propanenitrile] | 0.0195 µM
6 | CNC(=O)c1c(OC)cc(Nc2cc3cc(-c4cc(C)ncc4O[C@H]4CC[C@H](O)CC4)ccn3n2)cc1OC [Example 331, 4-[[5-[5-(4-hydroxycyclohexoxy)-2-methyl-4-pyridyl]pyrazolo[1,5-a]pyridin-2-yl]amino]-2,6-dimethoxy-N-methyl-benzamide] | 0.0366 µM
7 | Cc1cc(-c2ccn3nc(Nc4cc(C)nc(C)n4)cc3c2)c(OCC2(O)CCC2)cn1 [Example 217, 1-[[4-[2-[(2,6-dimethylpyrimidin-4-yl)amino]pyrazolo[1,5-a]pyridin-5-yl]-6-methyl-3-pyridyl]oxymethyl]cyclobutanol] | 0.0279 µM
8 | COC(=O)c1ccc(Nc2cc3cc(-c4cc(C)ncc4O[C@H]4CC[C@H](O)CC4)ccn3n2)cc1OC [Example 246, methyl 4-[[5-[5-(4-hydroxycyclohexoxy)-2-methyl-4-pyridyl]pyrazolo[1,5-a]pyridin-2-yl]amino]-2-methoxy-benzoate] | 0.0441 µM
9 | Cc1cc(-c2ccn3nc(Nc4cnc(C(C)(C)C)cn4)cc3c2)c(OCC(C)(C)O)cn1 [Example 613, 1-[[4-[2-[(5-tert-butylpyrazin-2-yl)amino]pyrazolo[1,5-a]pyridin-5-yl]-6-methyl-3-pyridyl]oxy]-2-methyl-propan-2-ol] | 0.1 µM
10 | Cc1cc(-c2ccn3nc(Nc4cc(C)nc(C)n4)cc3c2)c(OC[C@@H]2CCS(=O)(=O)C2)cn1 (single isomer, unassigned) [Example 364, (*S)—N-(2,6-dimethylpyrimidin-4-yl)-5-[5-[(1,1-dioxothiolan-3-yl)methoxy]-2-methyl-4-pyridyl]pyrazolo[1,5-a]pyridin-2-amine] | 0.0441 µM
11 | Cc1cc(-c2ccn3nc(Nc4cc(C)nc(C)n4)cc3c2)c(O[C@H]2COC(C)(C)C2)cn1 (single isomer, unassigned) [Example 577, (*R)—N-(2,6-dimethylpyrimidin-4-yl)-5-[5-(5,5-dimethyltetrahydrofuran-3-yl)oxy-2-methyl-4-pyridyl]pyrazolo[1,5-a]pyridin-2-amine] | 0.0724 µM
12 | Cc1cc(-c2ccn3nc(Nc4nn(C)c5ncccc45)cc3c2)c(OCC(C)(C)O)cn1 [Example 292, 2-methyl-1-[[6-methyl-4-[2-[(1-methylpyrazolo[3,4-b]pyridin-3-yl)amino]pyrazolo[1,5-a]pyridin-5-yl]-3-pyridyl]oxy]propan-2-ol] | 0.0187 µM
13 | Cc1ncc(Nc2cc3cc(-c4cc(OC(F)F)ncc4OCC(C)(C)C#N)ccn3n2)cn1 [Example 641, 3-[[6-(difluoromethoxy)-4-[2-[(2-methylpyrimidin-5-yl)amino]pyrazolo[1,5-a]pyridin-5-yl]-3-pyridyl]oxy]-2,2-dimethyl-propanenitrile] | 0.111 µM

The next lines start with the values.

Row | IC50 | Structure (SMILES)
14 | 0.00304 µM | Cc1cc(Nc2cc3cc(-c4cc(OC(F)F)ncc4OC[C@@H]4CC(=O)NC4(C)C)ccn3n2)nc(C)n1 (single isomer, unassigned) [Example 738, (*R)-4-[[6-(difluoromethoxy)-4-[2-[(2,6-dimethylpyrimidin-4-yl)amino]pyrazolo[1,5-a]pyridin-5-yl]-3-pyridyl]oxymethyl]-5,5-dimethyl-pyrrolidin-2-one]
15 | 0.00685 µM | Cc1cc(Nc2cc3cc(-c4cc(OCC#N)ncc4O[C@H]4CC[C@H](O)CC4)ccn3n2)nc(C)n1 [Example 690, 2-[[4-[2-[(2,6-dimethylpyrimidin-4-yl)amino]pyrazolo[1,5-a]pyridin-5-yl]-5-(4-hydroxycyclohexoxy)-2-pyridyl]oxy]acetonitrile]
16 | 0.00251 µM | Cc1cc(-c2ccn3nc(NC(=O)C4CC4)cc3c2)c(O[C@H]2CC[C@@](O)(C(F)(F)F)CC2)cn1 [Example 191, N-(5-(5-(((1r,4r)-4-hydroxy-4-(trifluoromethyl)cyclohexyl)oxy)-2-methylpyridin-4-yl)pyrazolo[1,5-a]pyridin-2-yl)cyclopropanecarboxamide]
17 | < 0.000847 µM | Cc1cc(-c2ccn3nc(Nc4cc(C)nc(C5CC5)n4)cc3c2)c(OCC(C)(C)C#N)cn1 [Example 310, 3-[[4-[2-[(2-cyclopropyl-6-methyl-pyrimidin-4-yl)amino]pyrazolo[1,5-a]pyridin-5-yl]-6-methyl-3-pyridyl]oxy]-2,2-dimethyl-propanenitrile]
18 | 0.00878 µM | Cc1cc(-c2ccn3nc(Nc4cc(C)nc(C)n4)cc3c2)c(OC[C@@H]2CCO[C@@H]2C)cn1 (single isomer, unassigned) [Example 207, N-(2,6-dimethylpyrimidin-4-yl)-5-(2-methyl-5-(((2*R,3*S)-2-methyltetrahydrofuran-3-yl)methoxy)pyridin-4-yl)pyrazolo[1,5-a]pyridin-2-amine]
19 | < 0.000847 µM | CNc1nc(C)cc(Nc2cc3cc(-c4cc(C)ncc4O[C@H]4CC[C@H](O)CC4)ccn3n2)n1 [Example 227, (1r,4r)-4-((6-methyl-4-(2-((6-methyl-2-(methylamino)pyrimidin-4-yl)amino)pyrazolo[1,5-a]pyridin-5-yl)pyridin-3-yl)oxy)cyclohexan-1-ol]
20 | 0.00247 µM | Cc1cc(-c2ccn3nc(NC(=O)C4CC4)cc3c2)c(OC2CCC(O)(C(C)C)CC2)cn1 (stereo not drawn) [Example 196]
21 | 0.00587 µM | Cc1cc(-c2ccn3nc(Nc4cc(C)nc(C5CC5)n4)cc3c2)c(OCC(C)(C)O)cn1 [Example 229, 1-[[4-[2-[(2-cyclopropyl-6-methyl-pyrimidin-4-yl)amino]pyrazolo[1,5-a]pyridin-5-yl]-6-methyl-3-pyridyl]oxy]-2-methyl-propan-2-ol]
22 | 0.0182 µM | CC(C)(C#N)COc1cnc(OC(F)F)cc1-c1ccn2nc(Nc3cc4c(cn3)CCNC4)cc2c1 [Example 718, 3-[[6-(difluoromethoxy)-4-[2-(5,6,7,8-tetrahydro-2,6-naphthyridin-3-ylamino)pyrazolo[1,5-a]pyridin-5-yl]-3-pyridyl]oxy]-2,2-dimethyl-propanenitrile]
23 | 0.00171 µM | Cc1cc(-c2ccn3nc(Nc4ccc5nccn5n4)cc3c2)c(OCC(C)(C)C#N)cn1 [Example 308, 3-[[4-[2-(imidazo[1,2-b]pyridazin-6-ylamino)pyrazolo[1,5-a]pyridin-5-yl]-6-methyl-3-pyridyl]oxy]-2,2-dimethyl-propanenitrile]
24 | 0.0037 µM | CO[C@@]1(COc2cnc(C)cc2-c2ccn3nc(NC(=O)C4CC4)cc3c2)CCNC1 (single isomer, unassigned) [Example 215, (*S)—N-[5-[5-[(3-methoxypyrrolidin-3-yl)methoxy]-2-methyl-4-pyridyl]pyrazolo[1,5-a]pyridin-2-yl]cyclopropanecarboxamide]
25 | 0.00254 µM | Cc1cc(Nc2cc3cc(-c4cc(C(F)(F)F)ncc4OCC(C)(C)C#N)ccn3n2)nc(C)n1 [Example 494, 3-[[4-[2-[(2,6-dimethylpyrimidin-4-yl)amino]pyrazolo[1,5-a]pyridin-5-yl]-6-(trifluoromethyl)-3-pyridyl]oxy]-2,2-dimethyl-propanenitrile]
26 | 0.016 µM | CC#Cc1cc(-c2ccn3nc(Nc4cc(C)nc(C)n4)cc3c2)c(N[C@H]2CC[C@@H](O)CC2)cn1 [Example 362, 4-[[4-[2-[(2,6-dimethylpyrimidin-4-yl)amino]pyrazolo[1,5-a]pyridin-5-yl]-6-prop-1-ynyl-3-pyridyl]amino]cyclohexanol]
27 | 0.00698 µM | Cc1cc(-c2ccn3nc(Nc4cc(C)c(=O)n(CCOC(F)F)n4)cc3c2)c(OC[C@H]2OCC[C@@H]2O)cn1 [Example 296, 2-[2-(difluoromethoxy)ethyl]-6-[[5-[5-[[(2R,3S)-3-hydroxytetrahydrofuran-2-yl]methoxy]-2-methyl-4-pyridyl]pyrazolo[1,5-a]pyridin-2-yl]amino]-4-methyl-pyridazin-3-one]
